According to US5998362A, “Conjugates useful in the treatment of prostate cancer” (priority 1997, dated 1999):
Where a SMILES comes first, the peptide text is derived from it. [ ]: non-standard residue; d: D form. The star is where a group is joined. Doxorubicin(3'-N) = COc1cccc2c1C(=O)c1c(O)c3c(c(O)c1C2=O)C[C@@](O)(C(=O)CO)C[C@@H]3O[C@H]1C[C@H](N*)[C@H](O)[C@H](C)O1; Decanoyl(3,6,9-trioxa) = COCCOCCOCC(=O)*; Glyceroyl(2S) = O=C([C@@H](O)CO)*; Glyceroyl(2R) = O=C([C@H](O)CO)*; X1 = COCCOCCOCCOCCOCCOCCOCC(=O)*; hArg = N=C(N)NCCCC[C@H](N)C(=O)O; 3Pal = N[C@@H](Cc1cccnc1)C(=O)O; MeOCH2CH2OCH2CO = COCCOCC(=O)*; X4 = O=C([C@H](O)[C@@H](O)CO)*; Chg = N[C@H](C(=O)O)C1CCCCC1; hSer = N[C@@H](CCO)C(=O)O; Glycolyl = O=C(CO)*; X3 = O=C(C(O)CO)*

Legend:
DuPRO cells = experiment: In vitro cytotoxicity of peptidyl derivatives of doxorubicin, Alamar Blue assay, DuPRO; assay type: cell-based; settings: 3 days incubation, read-out: DuPRO cell kill EC 50 (μM), value in parentheses
Procedure: The cytotoxicities of the cleaveable oligopeptide-doxorubicin conjugates, prepared as described in Examples 3-6, against a line of cells which is known to be killed by unmodified doxorubicin was assessed with an Alamar Blue assay. Specifically, cell cultures of LNCap prostate tumor cells or DuPRO cells in 96 well plates was diluted with medium containing various concentrations of a given conjugate (final plate well volume of 200 μl). The cells were incubated for 3 days at 37° C., 20 μl of Alamar Blue is added to the assay well. The cells were further incubated and the assay plates were read on a EL-310 ELISA reader at the dual wavelengths of 570 and 600 nm at 4 and 7 hours after addition of Alamar Blue. Relative percentage viability at the various concentration of conjugate tested was then calculated versus control (no conjugate) cultures. If no salt is indicated, the free conjugate was tested.

free PSA = free PSA (Homo sapiens, UniProt P07288); experiment: Recognition of oligopeptides by free PSA (time to 50% cleavage, HPLC)
Chain of free PSA (P07288 25-261): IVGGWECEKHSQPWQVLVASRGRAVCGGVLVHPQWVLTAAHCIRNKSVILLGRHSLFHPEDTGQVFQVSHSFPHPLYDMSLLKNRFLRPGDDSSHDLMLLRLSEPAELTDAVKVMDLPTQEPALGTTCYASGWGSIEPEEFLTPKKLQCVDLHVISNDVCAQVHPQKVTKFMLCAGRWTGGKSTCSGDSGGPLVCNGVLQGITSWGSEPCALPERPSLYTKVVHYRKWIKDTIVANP
Procedure: The oligopeptides prepared as described in Example 1 were individually dissolved in PSA digestion buffer (12 mM tris(hydroxymethyl)-aminomethane pH8.0, 25 mM NaCl, 0.5 mM CaCl2) and the solution added to PSA at a molar ration of 100 to 1. The reaction is quenched after various reaction times by the addition of trifluoroacetic acid (TFA) to a final 1% (volume/volume). The quenched reaction was analyzed by HPLC on a reversed-phase C18 column using an aqueous 0.1% TFA/acetonitrile gradient. […] Oligopeptides containing free amine moieties (ie. comprising hArg, Orn, Lys and or 3PAL) were tested as TFA salts. All other oligopeptides were tested as neutral compounds.

[1] = Table 2, oligopeptides, PSA digestion buffer 12 mM Tris pH8.0, 25 mM NaCl, 0.5 mM CaCl2, substrate:PSA 100 to 1

Row | Compound | Time to 50% Substrate Cleavage by York PSA (free PSA; free psa, pH 8) [min] | also measured
1 | COc1cccc2c1C(=O)c1c(O)c3c(c(O)c1C2=O)C[C@@](O)(C(=O)CO)C[C@@H]3O[C@H]1C[C@H](NC(=O)[C@H](CC(C)C)NC(=O)[C@H](CO)NC(=O)[C@H](CCC(N)=O)NC(=O)[C@@H](NC(=O)[C@H](CO)NC(=O)[C@H](C)NC(=O)[C@H](CCCCNC(=N)N)NC(=O)CO)C2CCCCC2)[C@H](O)[C@H](C)O1 [2-hydroxyacetyl-hRASChgQ-SL-DOX(3'), 2-hydroxyacetyl-hArgAlaSerChgGln-SerLeu-DOX (3')] (Glycolyl-[hArg]AS[Chg]QSL-{Doxorubicin(3'-N)}) | – | EC50 (DuPRO cells): > 100 µM
2 | COCCOCCOCCOCCOCCOCCOCC(=O)N[C@@H](C)C(=O)N[C@@H](CO)C(=O)N[C@H](C(=O)N[C@@H](CCC(N)=O)C(=O)N[C@@H](CO)C(=O)N[C@@H](CC(C)C)C(=O)N[C@H]1C[C@H](O[C@H]2C[C@](O)(C(=O)CO)Cc3c(O)c4c(c(O)c32)C(=O)c2c(OC)cccc2C4=O)O[C@@H](C)[C@H]1O)C1CCCCC1 [PEG(6)-ASChgQ-SL-DOX(3'), PEG(6)-AlaSerChgGln-SerLeu-DOX (3')] (X1-AS[Chg]QSL-{Doxorubicin(3'-N)}) | – | EC50 (DuPRO cells): 100 µM
3 | CC(C)C[C@H](NC(=O)[C@H](CO)NC(=O)[C@H](CCC(N)=O)NC(=O)[C@@H](NC(=O)[C@H](CO)NC(=O)[C@H](CO)NC(=O)[C@H](CCCCNC(=N)N)NC(=O)[C@@H](O)CO)C1CCCCC1)C(=O)O [2(S)2,3-dihydroxypropionly-hRSSChgQ-SL-acid] ({Glyceroyl(2S)}-[hArg]SS[Chg]QSL-OH) | – | Time to 50% Substrate Cleavage by York PSA (Min), values marked * (free PSA; free psa): 25 min
4 | CC(C)C[C@H](NC(=O)[C@H](CO)NC(=O)[C@H](CCC(N)=O)NC(=O)[C@@H](NC(=O)[C@H](CO)NC(=O)[C@H](C)NC(=O)[C@H](CCCCNC(=N)N)NC(=O)CO)C1CCCCC1)C(=O)O [2-hydroxyacetyl-hRASChgQ-SL-acid] (Glycolyl-[hArg]AS[Chg]QSL-OH) | 70 | –
5 | COc1cccc2c1C(=O)c1c(O)c3c(c(O)c1C2=O)C[C@@](O)(C(=O)CO)C[C@@H]3O[C@H]1C[C@H](NC(=O)[C@H](CC(C)C)NC(=O)[C@H](CO)NC(=O)[C@H](CCC(N)=O)NC(=O)[C@@H](NC(=O)[C@H](CO)NC(=O)[C@H](CO)NC(=O)[C@H](Cc2cccnc2)NC(=O)[C@H](O)CO)C2CCCCC2)[C@H](O)[C@H](C)O1 [(d)(2,3-dihydroxypropionyl)-3PAL-SerSerChgGln-SerLeu-DOX (3')] ({Glyceroyl(2R)}-[3Pal]SS[Chg]QSL-{Doxorubicin(3'-N)}) | – | EC50 (DuPRO cells): > 100 µM
6 | CC(C)C[C@H](NC(=O)[C@H](CO)NC(=O)[C@H](CCC(N)=O)NC(=O)[C@@H](NC(=O)[C@H](CCCCNC(=N)N)NC(=O)[C@H](CO)NC(=O)CO)C1CCCCC1)C(=O)O [2-hydroxyacetyl-ShRChgQ-SL-acid] (Glycolyl-S[hArg][Chg]QSL-OH) | 120 | Time to 50% Substrate Cleavage by York PSA (Min), values marked * (free PSA; free psa): 30 min
7 | CC(C)C[C@H](NC(=O)[C@H](CO)NC(=O)[C@H](CCC(N)=O)NC(=O)[C@H](Cc1ccc(O)cc1)NC(=O)[C@H](CCCCNC(=N)N)NC(=O)CO)C(=O)O [2-hydroxyacetylhRYQ-SL-acid] (Glycolyl-[hArg]YQSL-OH) | – | Time to 50% Substrate Cleavage by York PSA (Min), values marked * (free PSA; free psa): 105 min
8 | COCCOCC(=O)N[C@@H](CO)C(=O)N[C@@H](CCCCNC(=N)N)C(=O)N[C@H](C(=O)N[C@@H](CCC(N)=O)C(=O)N[C@@H](CO)C(=O)N[C@@H](CC(C)C)C(=O)O)C1CCCCC1 [PEG(1)-ShRChgQ-SL-acid] (MeOCH2CH2OCH2CO-S[hArg][Chg]QSL-OH) | – | Time to 50% Substrate Cleavage by York PSA (Min), values marked * (free PSA; free psa): 120 min
9 | CC(=O)N[C@@H](CCCCNC(=N)N)C(=O)N[C@@H](CO)C(=O)N[C@@H](CO)C(=O)N[C@H](C(=O)N[C@@H](CCC(N)=O)C(=O)N[C@@H](CO)C(=O)N[C@@H](CC(C)C)C(=O)O)C1CCCCC1 [AChRSSChgQ-SL-acid] (Ac-[hArg]SS[Chg]QSL-OH) | 120 | Time to 50% Substrate Cleavage by York PSA (Min), values marked * (free PSA; free psa): 45 min
10 | CC(C)C[C@H](NC(=O)[C@H](CO)NC(=O)[C@H](CCC(N)=O)NC(=O)[C@@H](NC(=O)[C@H](CO)NC(=O)[C@H](CO)NC(=O)[C@H](CCCCNC(=N)N)NC(=O)C(O)CO)C1CCCCC1)C(=O)O (stereo partly shown) [2,3-dihydroxypropionyl-hRSSChgQ-SL-acid] (X3-[hArg]SS[Chg]QSL-OH) | 50 | –
11 | CC(C)C[C@H](NC(=O)[C@H](CO)NC(=O)[C@H](CCC(N)=O)NC(=O)[C@@H](NC(=O)[C@H](CO)NC(=O)[C@H](CO)NC(=O)CO)C1CCCCC1)C(=O)O [2-hydroxyacetyl-SSChgQ-SL-acid] (Glycolyl-SS[Chg]QSL-OH) | 180 | –
12 | CC(C)C[C@H](NC(=O)[C@H](CO)NC(=O)[C@H](CCC(N)=O)NC(=O)[C@@H](NC(=O)[C@H](CO)NC(=O)[C@H](CO)NC(=O)[C@@H](O)CO)C1CCCCC1)C(=O)O [(I)2,3-dihydroxypropionyl-SSChgQ-SL-acid] ({Glyceroyl(2S)}-SS[Chg]QSL-OH) | 180 | –
13 | COCCOCCOCCOCCOCCOCCOCCOCCOCCOCCOCCOCCOCCOCCOCCOCCOCCOCCOCCOCC(=O)N[C@@H](CO)C(=O)N[C@@H](CCCCNC(=N)N)C(=O)N[C@@H](Cc1ccc(O)cc1)C(=O)N[C@@H](CCC(N)=O)C(=O)N[C@@H](CO)C(=O)N[C@@H](CC(C)C)C(=O)O [PEG(19)ShRYQ-SL-acid] | 60 | –
14 | CC(C)C[C@H](NC(=O)[C@H](CO)NC(=O)[C@H](CCC(N)=O)NC(=O)[C@@H](NC(=O)[C@H](CO)NC(=O)[C@H](CO)NC(=O)[C@H](CCO)NC(=O)C(O)CO)C1CCCCC1)C(=O)O (stereo partly shown) [2,3-dihydroxypropionyl-hSSSChgQ-SL-acid] (X3-[hSer]SS[Chg]QSL-OH) | 160 | –
15 | PEG(4)-β-PAL-SSChgQ-SL-acid | – | Time to 50% Substrate Cleavage by York PSA (free PSA; [1]): 60 min
16 | CC(C)C[C@H](NC(=O)[C@H](CO)NC(=O)[C@H](CCC(N)=O)NC(=O)[C@@H](NC(=O)[C@H](CCCCNC(=N)N)NC(=O)[C@H](CO)NC(=O)[C@H](O)[C@@H](O)CO)C1CCCCC1)C(=O)O [(2R,3S)2,3,4-trihydroxybutanoyl-ShRChgQ-SL-acid] (X4-S[hArg][Chg]QSL-OH) | 90 | –
17 | CC(C)C[C@H](NC(=O)[C@H](CO)NC(=O)[C@H](CCC(N)=O)NC(=O)[C@@H](NC(=O)[C@H](CCCCNC(=N)N)NC(=O)[C@H](CO)NC(=O)[C@@H](O)CO)C1CCCCC1)C(=O)O [2(S)-2,3-dihydroxy propionylShRChgQSL-acid] ({Glyceroyl(2S)}-S[hArg][Chg]QSL-OH) | – | Time to 50% Substrate Cleavage by York PSA (Min), values marked * (free PSA; free psa): 35 min
18 | COCCOCCOCC(=O)N[C@@H](CO)C(=O)N[C@@H](CCCCNC(=N)N)C(=O)N[C@H](C(=O)N[C@@H](CCC(N)=O)C(=O)N[C@@H](CO)C(=O)N[C@@H](CC(C)C)C(=O)O)C1CCCCC1 [PEG(2)-S-hRChgQ-SL-acid] ({Decanoyl(3,6,9-trioxa)}-S[hArg][Chg]QSL-OH) | 30 | –
19 | CC(C)C[C@H](NC(=O)[C@H](CO)NC(=O)[C@H](CCC(N)=O)NC(=O)[C@@H](NC(=O)[C@H](CO)NC(=O)[C@H](CO)NC(=O)[C@H](CO)NC(=O)[C@@H](O)CO)C1CCCCC1)C(=O)O [(I)2,3-dihydroxypropionyl-SSSChgQ-SL-acid] ({Glyceroyl(2S)}-SSS[Chg]QSL-OH) | 80 | Time to 50% Substrate Cleavage by York PSA (free PSA; [1]): 110 min
20 | COc1cccc2c1C(=O)c1c(O)c3c(c(O)c1C2=O)C[C@@](O)(C(=O)CO)C[C@@H]3O[C@H]1C[C@H](NC(=O)[C@H](CC(C)C)NC(=O)[C@H](CO)NC(=O)[C@H](CO)NC(=O)[C@H](CO)NC(=O)[C@H](CCC(N)=O)NC(=O)[C@H](Cc2ccc(O)cc2)NC(=O)[C@H](CO)NC(=O)CO)[C@H](O)[C@H](C)O1 [2-hydroxyacetyl-SYQ-SSSL-DOX(3'), 2-hydroxyacetyl-SerTyrGln-SerSerSerLeu-DOX (3')] (Glycolyl-SYQSSSL-{Doxorubicin(3'-N)}) | – | EC50 (DuPRO cells): 50 µM
21 | CC(C)C[C@H](NC(=O)[C@H](CO)NC(=O)[C@H](CCC(N)=O)NC(=O)[C@@H](NC(=O)[C@H](CCCCNC(=N)N)NC(=O)[C@H](CO)NC(=O)C(O)CO)C1CCCCC1)C(=O)O (stereo partly shown) [2,3-dihydroxypropionylShRChgQ-SL-acid] (X3-S[hArg][Chg]QSL-OH) | 75 | –
22 | CC(=O)N[C@@H](CCCCNC(=N)N)C(=O)N[C@@H](C)C(=O)N[C@@H](CO)C(=O)N[C@H](C(=O)N[C@@H](CCC(N)=O)C(=O)N[C@@H](CO)C(=O)N[C@@H](CC(C)C)C(=O)O)C1CCCCC1 [Ac-hRASChgQ-SL-acid] (Ac-[hArg]AS[Chg]QSL-OH) | 50 | –
